These results are taken from publication PMC13504986 (Nature, 2024).

In one experiment the target is T1, OR1A1 (Homo sapiens, UniProt Q9P1Q5).
T1 sequence (Q9P1Q5 1-309): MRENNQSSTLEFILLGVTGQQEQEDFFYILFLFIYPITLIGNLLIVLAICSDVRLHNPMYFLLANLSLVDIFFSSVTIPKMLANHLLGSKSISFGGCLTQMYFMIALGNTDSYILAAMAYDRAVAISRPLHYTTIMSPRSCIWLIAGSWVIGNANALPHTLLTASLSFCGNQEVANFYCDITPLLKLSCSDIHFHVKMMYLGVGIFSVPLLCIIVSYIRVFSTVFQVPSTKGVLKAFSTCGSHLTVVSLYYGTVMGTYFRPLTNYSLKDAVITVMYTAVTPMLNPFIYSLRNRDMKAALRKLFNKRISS
Kind of experiment: GloSensor cAMP assay, HEK293T with RTP1S. It counts as cell-based.

A further experiment concerns the target T2, OR51E1 (Homo sapiens, UniProt Q8TCB6).
T2 sequence (Q8TCB6 2-318 limits assumed): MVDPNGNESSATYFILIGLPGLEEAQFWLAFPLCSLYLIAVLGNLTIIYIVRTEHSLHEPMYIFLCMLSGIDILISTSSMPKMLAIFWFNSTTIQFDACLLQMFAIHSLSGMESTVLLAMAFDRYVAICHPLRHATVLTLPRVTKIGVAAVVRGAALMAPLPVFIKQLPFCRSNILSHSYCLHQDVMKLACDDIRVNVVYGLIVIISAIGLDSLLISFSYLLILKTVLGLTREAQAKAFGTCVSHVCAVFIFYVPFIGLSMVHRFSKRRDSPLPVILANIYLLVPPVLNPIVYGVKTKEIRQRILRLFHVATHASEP
Kind of experiment: GloSensor cAMP assay, HEK293T. In kind it is cell-based.

With `CC(C)[C@@H]1CC[C@@H](C)C[C@H]1O` [L-menthol], on OR1A1, the midpoint of the response, the EC50, lay at 38.9 µM.

The compound `C=C(C)[C@@H]1CC=C(C)C(=O)C1` [R-carvone] had an EC50 on OR1A1 of 0.513 µM. As for `CCCCC(=O)O` [pentanoate], a half-maximal response on OR51E1 (EC50) required 34.7 µM.
